# Laboratory results reported in PubChem BioAssay AID2060503 (Molecular Pharmacology Branch, DTP, NCI, 2025).
# Tested on: 817829-284-R-J1-PDC complex spheroids, viability
# Assay: Anticancer human tumor 817829-284-R-J1-PDC patient-derived colon adenocarcinoma cell line growth inhibition [GQUAD]
# Conditions: for IC50: curve of first compound; for viability, T/C: stronger effect = lower value
# In short: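 Multi-cell-type spheroids of tumor cells with HUVEC and mesenchymal stem cells, treated with drug combinations. Concentrations descend in half-log steps from near clinical Cmax, or from 10 microM where Cmax is unknown; viability read-out.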
# [1] = second compound 0.0316 µM, first compound 0.0316 µM
# [2] = second compound 0.0316 µM, first compound 0.1 µM
# [3] = second compound 0.0316 µM, first compound 0.316 µM
# [4] = second compound 0.0316 µM, first compound 1 µM
# [5] = second compound 0.0316 µM, first compound 3.16 µM
# [6] = second compound 0.0316 µM, first compound 10 µM
# [7] = second compound 0.1 µM, first compound 0.0316 µM
# [8] = second compound 0.1 µM, first compound 0.1 µM
# [9] = second compound 0.1 µM, first compound 0.316 µM
# [10] = second compound 0.1 µM, first compound 1 µM
# [11] = second compound 0.1 µM, first compound 3.16 µM
# [12] = second compound 0.1 µM, first compound 10 µM
# [13] = second compound 0.316 µM, first compound 0.0316 µM
# [14] = second compound 0.316 µM, first compound 0.1 µM
# [15] = second compound 0.316 µM, first compound 0.316 µM
# [16] = second compound 0.316 µM, first compound 1 µM
# [17] = second compound 0.316 µM, first compound 3.16 µM
# [18] = second compound 0.316 µM, first compound 10 µM
# [19] = second compound 1 µM, first compound 0.0316 µM
# [20] = second compound 1 µM, first compound 0.1 µM
# [21] = second compound 1 µM, first compound 0.316 µM
# [22] = second compound 1 µM, first compound 1 µM
# [23] = second compound 1 µM, first compound 3.16 µM
# [24] = second compound 1 µM, first compound 10 µM
# [25] = second compound 3.16 µM, first compound 0.0316 µM
# [26] = second compound 3.16 µM, first compound 0.1 µM
# [27] = second compound 3.16 µM, first compound 0.316 µM
# [28] = second compound 3.16 µM, first compound 1 µM
# [29] = second compound 3.16 µM, first compound 3.16 µM
# [30] = second compound 3.16 µM, first compound 10 µM
# [31] = second compound 10 µM, first compound 0.0316 µM
# [32] = second compound 10 µM, first compound 0.1 µM
# [33] = second compound 10 µM, first compound 0.316 µM
# [34] = second compound 10 µM, first compound 1 µM
# [35] = second compound 10 µM, first compound 3.16 µM
# [36] = second compound 10 µM, first compound 10 µM
# 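Also: spheroids exposed to agents for 7 days before readout.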
# 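For viability, T/C in this document: percent viability relative to DMSO vehicle control taken as 100%.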
smiles,measurement,setting,value
CC(C)(O)C1CCC(Nc2ccc3ncc(-c4cccc(C(F)(F)F)c4)n3n2)CC1 (stereo not drawn) + Cc1cnc(CNC(=O)c2c(=O)c3ccc(N4CCCN(C)CC4)nc3n3c2sc2ccccc23)cn1,IC50,second compound 0.0316 µM,527 nM
same,IC50,second compound 0.1 µM,< 31.6 nM
same,IC50,second compound 0.316 µM,< 31.6 nM
same,IC50,second compound 1 µM,< 31.6 nM
same,IC50,second compound 3.16 µM,< 31.6 nM
same,IC50,second compound 10 µM,< 31.6 nM
same,"viability, T/C",[1],63.1%
same,"viability, T/C",[2],53.3%
same,"viability, T/C",[3],76.1%
same,"viability, T/C",[4],32.3%
same,"viability, T/C",[5],5.43%
same,"viability, T/C",[6],13.3%
same,"viability, T/C",[7],31.4%
same,"viability, T/C",[8],36.8%
same,"viability, T/C",[9],26%
same,"viability, T/C",[10],20.4%
same,"viability, T/C",[11],7.21%
same,"viability, T/C",[12],8.8%
same,"viability, T/C",[13],22.4%
same,"viability, T/C",[14],25.3%
same,"viability, T/C",[15],25.3%
same,"viability, T/C",[16],16.4%
same,"viability, T/C",[17],1.35%
same,"viability, T/C",[18],3.38%
same,"viability, T/C",[19],16.6%
same,"viability, T/C",[20],21.5%
same,"viability, T/C",[21],21%
same,"viability, T/C",[22],15.8%
same,"viability, T/C",[23],0.04%
same,"viability, T/C",[24],0.05%
same,"viability, T/C",[25],20.8%
same,"viability, T/C",[26],18%
same,"viability, T/C",[27],19.1%
same,"viability, T/C",[28],9.34%
same,"viability, T/C",[29],0.09%
same,"viability, T/C",[30],0.09%
same,"viability, T/C",[31],0.11%
same,"viability, T/C",[32],0.13%
same,"viability, T/C",[33],0.17%
same,"viability, T/C",[34],0.12%
same,"viability, T/C",[35],0.19%
same,"viability, T/C",[36],0.18%
CCCS(=O)(=O)Nc1ccc(F)c(C(=O)c2c[nH]c3ncc(-c4ccc(Cl)cc4)cc23)c1F + Cc1cnc(CNC(=O)c2c(=O)c3ccc(N4CCCN(C)CC4)nc3n3c2sc2ccccc23)cn1,IC50,second compound 0.0316 µM,44.8 nM
same,IC50,second compound 0.1 µM,< 31.6 nM
same,IC50,second compound 0.316 µM,< 31.6 nM
same,IC50,second compound 1 µM,< 31.6 nM
same,IC50,second compound 3.16 µM,< 31.6 nM
same,IC50,second compound 10 µM,< 31.6 nM
same,"viability, T/C",[1],57.4%
same,"viability, T/C",[2],33.9%
same,"viability, T/C",[3],34.4%
same,"viability, T/C",[4],28.3%
same,"viability, T/C",[5],30.9%
same,"viability, T/C",[6],11.8%
same,"viability, T/C",[7],20.7%
same,"viability, T/C",[8],21.9%
same,"viability, T/C",[9],15.6%
same,"viability, T/C",[10],14.8%
same,"viability, T/C",[11],12.5%
same,"viability, T/C",[12],10.2%
same,"viability, T/C",[13],19.2%
same,"viability, T/C",[14],20%
same,"viability, T/C",[15],17.1%
same,"viability, T/C",[16],16.7%
same,"viability, T/C",[17],15.7%
same,"viability, T/C",[18],10.7%
same,"viability, T/C",[19],16.7%
same,"viability, T/C",[20],19.7%
same,"viability, T/C",[21],18.6%
same,"viability, T/C",[22],14.5%
same,"viability, T/C",[23],14.5%
same,"viability, T/C",[24],6.86%
same,"viability, T/C",[25],18%
same,"viability, T/C",[26],17.4%
same,"viability, T/C",[27],15.1%
same,"viability, T/C",[28],12.9%
same,"viability, T/C",[29],12.2%
same,"viability, T/C",[30],2.83%
same,"viability, T/C",[31],0.09%
same,"viability, T/C",[32],0.13%
same,"viability, T/C",[33],0.17%
same,"viability, T/C",[34],0.16%
same,"viability, T/C",[35],0.17%
same,"viability, T/C",[36],0.17%
COc1ncnc(C2CC2)c1-c1ncc2cnn(Cc3ccc(-c4nc(C(F)(F)F)cn4C(C)C)cc3)c2n1 + Cc1cnc(CNC(=O)c2c(=O)c3ccc(N4CCCN(C)CC4)nc3n3c2sc2ccccc23)cn1,IC50,second compound 0.0316 µM,> 10000 nM
same,IC50,second compound 0.1 µM,< 31.6 nM
same,IC50,second compound 0.316 µM,< 31.6 nM
same,IC50,second compound 1 µM,< 31.6 nM
same,IC50,second compound 3.16 µM,< 31.6 nM
same,IC50,second compound 10 µM,< 31.6 nM
same,"viability, T/C",[1],63.5%
same,"viability, T/C",[2],51.9%
same,"viability, T/C",[3],55.5%
same,"viability, T/C",[4],43.7%
same,"viability, T/C",[5],66%
same,"viability, T/C",[6],64.1%
same,"viability, T/C",[7],28.1%
same,"viability, T/C",[8],31.1%
same,"viability, T/C",[9],28.2%
same,"viability, T/C",[10],29.5%
same,"viability, T/C",[11],28.4%
same,"viability, T/C",[12],33.2%
same,"viability, T/C",[13],19.2%
same,"viability, T/C",[14],26.4%
same,"viability, T/C",[15],20.8%
same,"viability, T/C",[16],25.4%
same,"viability, T/C",[17],25.6%
same,"viability, T/C",[18],22.8%
same,"viability, T/C",[19],19.3%
same,"viability, T/C",[20],22.8%
same,"viability, T/C",[21],21.1%
same,"viability, T/C",[22],20.8%
same,"viability, T/C",[23],22.1%
same,"viability, T/C",[24],18%
same,"viability, T/C",[25],16.9%
same,"viability, T/C",[26],18.9%
same,"viability, T/C",[27],17.7%
same,"viability, T/C",[28],19.4%
same,"viability, T/C",[29],21.6%
same,"viability, T/C",[30],18.1%
same,"viability, T/C",[31],0.12%
same,"viability, T/C",[32],0.17%
same,"viability, T/C",[33],0.18%
same,"viability, T/C",[34],0.16%
same,"viability, T/C",[35],0.21%
same,"viability, T/C",[36],0.22%
Cc1[nH]c2ccccc2c1CCNCc1ccc(/C=C/C(=O)NO)cc1 + Cc1cnc(CNC(=O)c2c(=O)c3ccc(N4CCCN(C)CC4)nc3n3c2sc2ccccc23)cn1,IC50,second compound 0.0316 µM,7.25 nM
same,IC50,second compound 0.1 µM,< 0.999 nM
same,IC50,second compound 0.316 µM,< 0.999 nM
same,IC50,second compound 1 µM,< 0.999 nM
same,IC50,second compound 3.16 µM,< 0.999 nM
same,IC50,second compound 10 µM,< 0.999 nM
same,"viability, T/C","second compound 0.0316 µM, first compound 0.000999 µM",83.2%
same,"viability, T/C","second compound 0.0316 µM, first compound 0.00316 µM",67.1%
same,"viability, T/C","second compound 0.0316 µM, first compound 0.00999 µM",44.2%
same,"viability, T/C",[1],17.7%
same,"viability, T/C","second compound 0.0316 µM, first compound 0.0999 µM",5.1%
same,"viability, T/C",[3],0.06%
same,"viability, T/C","second compound 0.1 µM, first compound 0.000999 µM",27.4%
same,"viability, T/C","second compound 0.1 µM, first compound 0.00316 µM",31.7%
same,"viability, T/C","second compound 0.1 µM, first compound 0.00999 µM",21.3%
same,"viability, T/C",[7],18.4%
same,"viability, T/C","second compound 0.1 µM, first compound 0.0999 µM",6.46%
same,"viability, T/C",[9],0.06%
same,"viability, T/C","second compound 0.316 µM, first compound 0.000999 µM",21.5%
same,"viability, T/C","second compound 0.316 µM, first compound 0.00316 µM",24.8%
same,"viability, T/C","second compound 0.316 µM, first compound 0.00999 µM",17.1%
same,"viability, T/C",[13],15.9%
same,"viability, T/C","second compound 0.316 µM, first compound 0.0999 µM",4.53%
same,"viability, T/C",[15],0.05%
same,"viability, T/C","second compound 1 µM, first compound 0.000999 µM",18.3%
same,"viability, T/C","second compound 1 µM, first compound 0.00316 µM",20.6%
same,"viability, T/C","second compound 1 µM, first compound 0.00999 µM",15.7%
same,"viability, T/C",[19],13.7%
same,"viability, T/C","second compound 1 µM, first compound 0.0999 µM",3.62%
same,"viability, T/C",[21],0.06%
same,"viability, T/C","second compound 3.16 µM, first compound 0.000999 µM",15.1%
same,"viability, T/C","second compound 3.16 µM, first compound 0.00316 µM",18.6%
same,"viability, T/C","second compound 3.16 µM, first compound 0.00999 µM",15.4%
same,"viability, T/C",[25],11.8%
same,"viability, T/C","second compound 3.16 µM, first compound 0.0999 µM",0.11%
same,"viability, T/C",[27],0.1%
same,"viability, T/C","second compound 10 µM, first compound 0.000999 µM",0.1%
same,"viability, T/C","second compound 10 µM, first compound 0.00316 µM",0.14%
same,"viability, T/C","second compound 10 µM, first compound 0.00999 µM",0.2%
same,"viability, T/C",[31],0.18%
same,"viability, T/C","second compound 10 µM, first compound 0.0999 µM",0.2%
same,"viability, T/C",[33],0.2%
